The source of these data is PMC8595653, “Activation of specific bitter taste receptors by olive oil phenolics and secoiridoids” (Scientific Reports, 2021).

In one assay the test system is 25 human TAS2Rs. Description: Single dose scanning of phenolic compounds on the 25 bitter taste receptors (calcium mobilization, HEK293E). The assay is classed as cell-based. As to conditions: single dose 300 µM, 25 TAS2Rs, N = 2. The method, then:
(§1) All constructs were confirmed by DNA sequencing.
(§2) Data from single dose experiments were collected as duplicates. […] Data represent mean ± SD.
(§3) To characterize the bitterness of olive oil phenolic compounds, we performed calcium mobilization experiments. The 25 bitter taste receptors, G protein chimera (Gα16-gus44), and the GCaMP calcium sensor[68] were transiently expressed in HEK293E cells. Twelve olive oil phenolic compounds (Fig. 1) were tested for bitter taster receptor activation (Fig. 3). […] Ligstroside aglycon, and Oleuropein aglycon activated TAS2R1, TAS2R8 and TAS2R14 receptors. To validate the single dose scanning results, we performed concentration–response experiments for all the compounds toward receptors TAS2R1, TAS2R8, and TAS2R14 that produced the most significant responses (Fig. 4).
Figure 3 Phenolic compound bitter taste activity tests on hTAS2Rs. Relative fluorescence signals caused by phenolic compound activation of the receptors and the empty vector as a negative control. The concentration of the compounds used was [300 µM], except for Ligstroside aglycon and Oleuropein aglycon [200 µM], oleuropein that was [3 mM]. The asterisks indicate significant differences tested by one-way ANOVA (***p < 0.0001) (N = 2). Data represent mean ± SD.
(A change in cytosolic calcium serves as a functional read-out for many receptors and channels.)

In another assay the test system is TRPA1 receptor/channels. Details: method as in PMID 21248124. As to conditions: cited from earlier work.
For another assay, the target named is T1, TAS2R10 (Homo sapiens, UniProt Q9NYW0).
T1 construct: first 45 amino acids of rat somatostatin type 3 receptor (SSTR3) export tag (N); expressed in transfected cells; host or cells: HEK293E
The assay is described as follows: Calcium mobilization functional assay, TAS2R10. The format is cell-based. The note with it: 30 µM, versus empty pcDNA vector.
Description: as §1, §2

The next assay has as its target T2, TAS2R16 (Homo sapiens, UniProt Q9NYV7).
T2 construct: first 45 amino acids of rat somatostatin type 3 receptor (SSTR3) export tag (N); expressed in transfected cells; host or cells: HEK293E
The assay is described as follows: Calcium mobilization functional assay, TAS2R16. As to conditions: 10 mM, versus empty pcDNA vector. The assay is classed as cell-based.
Description: as §1, §2

Another assay deals with T3, TAS2R3 (Homo sapiens, UniProt Q9NYW6).
T3 construct: first 45 amino acids of rat somatostatin type 3 receptor (SSTR3) export tag (N); expressed in transfected cells; host or cells: HEK293E
Description: Calcium mobilization functional assay, TAS2R3. The assay is classed as cell-based. The note with it: 10 mM, versus empty pcDNA vector.
Description: as §1, §2

For another assay, the target named is T4, TAS2R7 (Homo sapiens, UniProt Q9NYW3).
T4 construct: first 45 amino acids of rat somatostatin type 3 receptor (SSTR3) export tag (N); expressed in transfected cells; host or cells: HEK293E
Description: Calcium mobilization functional assay, TAS2R7. The assay is classed as cell-based. The note with it: 10 mM, versus empty pcDNA vector.
Description: as §1, §2

The next assay addresses T5, TAS2R5 (Homo sapiens, UniProt Q9NYW4).
T5 construct: first 45 amino acids of rat somatostatin type 3 receptor (SSTR3) export tag (N); expressed in transfected cells; host or cells: HEK293E
Description: Calcium mobilization functional assay, TAS2R5. As to conditions: 1 mM, versus empty pcDNA vector. The format is cell-based.
Description: as §1, §2

For another assay, the target named is T6, TAS2R9 (Homo sapiens, UniProt Q9NYW1).
T6 construct: first 45 amino acids of rat somatostatin type 3 receptor (SSTR3) export tag (N); expressed in transfected cells; host or cells: HEK293E
Description: Calcium mobilization functional assay, TAS2R9. The assay is classed as cell-based. The note with it: 20 mM, versus empty pcDNA vector.
Description: as §1, §2

The next assay deals with T7, TAS2R13 (Homo sapiens, UniProt Q9NYV9).
T7 construct: first 45 amino acids of rat somatostatin type 3 receptor (SSTR3) export tag (N); expressed in transfected cells; host or cells: HEK293E
The assay is described as follows: Calcium mobilization functional assay, TAS2R13. As to conditions: 10 mM, versus empty pcDNA vector. The assay is classed as cell-based.
Description: as §1, §2

The target in a further assay is T8, TAS2R1 (Homo sapiens, UniProt Q9NYW7).
T8 construct: first 45 amino acids of rat somatostatin type 3 receptor (SSTR3) export tag (N); expressed in transfected cells; host or cells: HEK293E
T8 sequence (Q9NYW7 1-299): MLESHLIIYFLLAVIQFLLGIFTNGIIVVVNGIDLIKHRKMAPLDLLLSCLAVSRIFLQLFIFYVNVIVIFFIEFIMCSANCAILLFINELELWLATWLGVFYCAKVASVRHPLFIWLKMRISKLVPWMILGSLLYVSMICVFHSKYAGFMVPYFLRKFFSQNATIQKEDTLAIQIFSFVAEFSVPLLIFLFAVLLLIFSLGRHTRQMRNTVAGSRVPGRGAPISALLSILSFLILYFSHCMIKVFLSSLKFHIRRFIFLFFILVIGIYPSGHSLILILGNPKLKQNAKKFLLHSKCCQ
Description: Calcium mobilization functional assay, TAS2R1 co-expressed with Gα16-gust44 and GCaMP in HEK293E cells. The format is cell-based. As to conditions: 1 mM, versus empty pcDNA vector. The protocol:
as §1, §2, §3

The next assay has as its target T9, TAS2R8 (Homo sapiens, UniProt Q9NYW2).
T9 construct: first 45 amino acids of rat somatostatin type 3 receptor (SSTR3) export tag (N); expressed in transfected cells; host or cells: HEK293E
T9 sequence (Q9NYW2 1-309): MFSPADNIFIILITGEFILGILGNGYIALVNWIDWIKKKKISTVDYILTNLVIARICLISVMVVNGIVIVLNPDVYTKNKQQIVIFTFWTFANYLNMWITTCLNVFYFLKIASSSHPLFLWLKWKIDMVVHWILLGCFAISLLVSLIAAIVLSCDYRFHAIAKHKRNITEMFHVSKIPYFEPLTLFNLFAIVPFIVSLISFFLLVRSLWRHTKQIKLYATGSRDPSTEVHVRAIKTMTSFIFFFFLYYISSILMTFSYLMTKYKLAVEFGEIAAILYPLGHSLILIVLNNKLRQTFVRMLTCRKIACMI
Description: Calcium mobilization functional assay, TAS2R8 co-expressed with Gα16-gust44 and GCaMP in HEK293E cells. The assay is classed as cell-based. As to conditions: 1 mM, versus empty pcDNA vector. The protocol: as §1, §2, §3

In a further assay the target is T10, TAS2R41 (Homo sapiens, UniProt P59536).
T10 construct: first 45 amino acids of rat somatostatin type 3 receptor (SSTR3) export tag (N); expressed in transfected cells; host or cells: HEK293E
Description: Calcium mobilization functional assay, TAS2R41. The assay is classed as cell-based. The note with it: 1 mM, versus empty pcDNA vector.
Description: as §1, §2

Structures are written as SMILES. Entries after “also recorded” stand apart in the source; their conditions may differ.

T1 sequence (Q9NYW0 whole entry): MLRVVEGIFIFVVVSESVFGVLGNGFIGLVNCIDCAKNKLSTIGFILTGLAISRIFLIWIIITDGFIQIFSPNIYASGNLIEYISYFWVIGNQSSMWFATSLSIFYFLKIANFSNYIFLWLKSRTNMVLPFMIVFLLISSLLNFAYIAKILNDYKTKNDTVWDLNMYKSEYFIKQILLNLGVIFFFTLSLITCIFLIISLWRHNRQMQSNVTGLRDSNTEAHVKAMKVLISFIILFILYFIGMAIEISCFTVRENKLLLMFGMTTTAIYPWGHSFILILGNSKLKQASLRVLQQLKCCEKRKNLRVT
T10 sequence (P59536 whole entry): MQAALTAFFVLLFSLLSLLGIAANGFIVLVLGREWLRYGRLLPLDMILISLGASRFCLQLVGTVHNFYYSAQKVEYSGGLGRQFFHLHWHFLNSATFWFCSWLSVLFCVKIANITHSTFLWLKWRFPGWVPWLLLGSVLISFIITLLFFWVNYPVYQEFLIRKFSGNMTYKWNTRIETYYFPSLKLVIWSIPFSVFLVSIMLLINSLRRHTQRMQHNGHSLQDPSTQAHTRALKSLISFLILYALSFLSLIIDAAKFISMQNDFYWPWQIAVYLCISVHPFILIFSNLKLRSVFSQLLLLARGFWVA
T3 sequence (Q9NYW6 whole entry): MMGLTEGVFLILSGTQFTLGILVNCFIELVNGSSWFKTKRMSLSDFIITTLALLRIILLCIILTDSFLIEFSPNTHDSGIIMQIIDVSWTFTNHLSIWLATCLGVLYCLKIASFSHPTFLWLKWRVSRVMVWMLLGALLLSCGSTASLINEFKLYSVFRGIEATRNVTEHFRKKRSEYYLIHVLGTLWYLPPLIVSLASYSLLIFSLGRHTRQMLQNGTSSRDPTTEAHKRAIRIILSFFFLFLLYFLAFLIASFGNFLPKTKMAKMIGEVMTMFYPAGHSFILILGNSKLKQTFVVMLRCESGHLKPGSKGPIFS
T7 sequence (Q9NYV9 whole entry): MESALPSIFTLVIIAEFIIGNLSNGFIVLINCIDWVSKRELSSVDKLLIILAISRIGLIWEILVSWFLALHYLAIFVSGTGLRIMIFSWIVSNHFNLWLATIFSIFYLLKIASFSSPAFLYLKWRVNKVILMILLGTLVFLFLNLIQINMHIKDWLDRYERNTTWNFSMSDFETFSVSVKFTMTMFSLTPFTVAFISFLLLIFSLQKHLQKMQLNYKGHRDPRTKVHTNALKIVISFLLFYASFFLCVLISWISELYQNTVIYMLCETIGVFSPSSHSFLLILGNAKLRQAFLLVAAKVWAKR
T4 sequence (Q9NYW3 whole entry): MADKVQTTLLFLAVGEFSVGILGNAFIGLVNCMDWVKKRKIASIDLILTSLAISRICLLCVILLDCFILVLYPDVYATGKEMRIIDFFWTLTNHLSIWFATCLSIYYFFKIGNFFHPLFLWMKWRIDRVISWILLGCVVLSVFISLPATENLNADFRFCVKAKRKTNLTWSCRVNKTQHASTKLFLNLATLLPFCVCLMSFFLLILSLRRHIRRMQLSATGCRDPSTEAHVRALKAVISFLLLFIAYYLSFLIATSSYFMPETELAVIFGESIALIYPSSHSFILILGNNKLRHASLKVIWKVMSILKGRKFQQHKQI
T6 sequence (Q9NYW1 whole entry): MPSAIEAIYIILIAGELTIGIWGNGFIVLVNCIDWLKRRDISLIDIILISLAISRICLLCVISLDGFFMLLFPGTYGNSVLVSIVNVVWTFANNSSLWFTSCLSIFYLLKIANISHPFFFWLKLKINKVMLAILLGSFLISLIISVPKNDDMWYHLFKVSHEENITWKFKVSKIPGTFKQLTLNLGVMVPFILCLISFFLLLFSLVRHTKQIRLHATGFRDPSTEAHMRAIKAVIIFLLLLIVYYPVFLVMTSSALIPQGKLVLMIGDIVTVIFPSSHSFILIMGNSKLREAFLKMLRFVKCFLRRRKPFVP
T2 sequence (Q9NYV7 whole entry): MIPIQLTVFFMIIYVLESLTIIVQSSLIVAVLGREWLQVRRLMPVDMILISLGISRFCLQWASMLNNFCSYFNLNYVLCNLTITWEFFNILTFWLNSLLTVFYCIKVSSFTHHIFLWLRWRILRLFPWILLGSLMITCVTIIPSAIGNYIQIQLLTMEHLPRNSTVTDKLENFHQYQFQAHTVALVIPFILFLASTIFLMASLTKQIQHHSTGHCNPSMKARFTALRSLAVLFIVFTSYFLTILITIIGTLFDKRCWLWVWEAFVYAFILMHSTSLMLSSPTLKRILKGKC
T5 sequence (Q9NYW4 whole entry): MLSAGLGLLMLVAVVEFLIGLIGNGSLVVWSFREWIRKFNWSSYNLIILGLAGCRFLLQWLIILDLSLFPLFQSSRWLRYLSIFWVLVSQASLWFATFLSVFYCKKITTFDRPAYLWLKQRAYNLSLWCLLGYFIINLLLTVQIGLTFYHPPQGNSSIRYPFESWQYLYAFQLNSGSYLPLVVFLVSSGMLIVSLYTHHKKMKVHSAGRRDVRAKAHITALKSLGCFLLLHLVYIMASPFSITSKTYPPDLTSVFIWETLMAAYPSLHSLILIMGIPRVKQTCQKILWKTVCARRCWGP

Take `C/C=C(/C=O)[C@@H](CC=O)CC(=O)OCCc1ccc(O)cc1` [Oleocanthal, oleocanthal]: the “activation of any TAS2R” value in the assay with 25 human TAS2Rs is listed as “did not activate any TAS2Rs”; in the assay with 25 human TAS2Rs (listed as oleocanthal), “did not show any activation of bitter receptors; also recorded: failed to activate any TAS2Rs”. Further, in the assay with TRPA1 receptor/channels, the “activation of TRPA1 receptor/channels” value is given as “activates”.

As to `CC(=O)OC(C)(C)/C=C/C(=O)[C@](C)(O)[C@H]1[C@H](O)C[C@@]2(C)[C@@H]3CC=C4[C@@H](C=C(O)C(=O)C4(C)C)[C@]3(C)C(=O)C[C@]12C` [cucurbitacin E], at TAS2R10, the “activation of TAS2R10” value is listed as “activated”.

For `OCc1ccccc1O[C@@H]1O[C@H](CO)[C@@H](O)[C@H](O)[C@H]1O` [salicin], the “activation of TAS2R16” value on TAS2R16 is “activated”.

As to `CCN(CC)CCCC(C)Nc1ccnc2cc(Cl)ccc12` (stereo not shown) [chloroquine], the “activation of TAS2R3” value at TAS2R3 was “activated”. The “activation of TAS2R7” value at TAS2R7 was “activated”.

For `c1cnc2c(c1)ccc1cccnc12` [1,10-phenanthroline], the “activation of TAS2R5” value on TAS2R5 is listed as “activated”.

In the case of `CCN(CC)CCNC(=O)c1ccc(N)cc1` [procainamide], the “activation of TAS2R9” value at TAS2R9 is “activated”.

For `CC[N+](C)(CC)CCOC(=O)C(O)(c1ccccc1)C1CCCCC1` (stereo not shown) [oxyphenonium], the “activation of TAS2R13” value at TAS2R13 is listed as “activated”.

As for `O=C(N[C@H](CO)[C@H](O)c1ccc([N+](=O)[O-])cc1)C(Cl)Cl` [chloramphenicol, reference compound], the “activation of TAS2R1” value on TAS2R1 was “activated”. Moreover, the “activation of TAS2R8” value at TAS2R8 was “activated”. Besides, the “activation of TAS2R41” value on TAS2R41 was “activated”.
